Measurements reported in publication PMC6917776, “Discovery of a chemical probe for PRDM9” (Nature Communications, 2019).

Test system: H3K4me3 at known PRDM9 binding loci and control TSS loci
Experiment: ChIP-qPCR of H3K4me3 in PRDM9-transfected HEK293T cells
Type: cell-based, human
Details: for H3K4me3 ChIP-qPCR 2^-dCq (IP-Input) / 2^-dCq (H3K4me3 IP relative to H3): Replicate 2; for H3K4me3 ChIP-qPCR 2^-dCq (IP-Input): H3K4me3 antibody relative to H3; for <Cq>: mean of two wells, Antibody H3K4me3, Plasmid PRDM9WT, Figure 7 Replicate 2
Method: ChIP-qPCR assays were then conducted on known PRDM9 binding loci[26]. Ectopic expression of PRDM9^WT increased trimethylation of H3K4 (H3K4me3) at previously described PRDM9-specific intragenic and intergenic regions[26] (Fig. 7; Supplementary Fig. 12). […] The observed increases in H3K4me3 levels at intragenic and intergenic regions are therefore due directly to PRDM9 PR domain-dependent methylation activity, rather than through recruitment of other H3K4 methyltransferases or other indirect mechanisms.
ChIP qPCR analyses of H3K4me3 methylation levels of known PRDM9-bound loci and control loci. […] Concentrations used (µM) are indicated below each plot. (a–d) represent reported loci of PRDM9 methylation; (e, f) are transcriptional start sites (TSSs) which are not known loci of PRDM9 methylation. Data are normalized to total H3 and are presented as the mean ± upper and lower limits from two replicates. Representative plots of two independent experiments are shown in this figure. The coordinates and the genomic features associated with the assayed loci are indicated above each plot. Left Tailed Student's t-tests were performed by comparing DMSO (0 µM) treated cells to compound treated cells that have been transfected with the same plasmids. *p-value < 0.05 and **p-value < 0.01. Note that here we show a representative of two independent experiments (mean ± s.d of technical replicates) for our ChIP-qPCR experiments. Data obtained using this technique are inherently noisy due to stochastic differences in gene activity/histone positioning. Data are thus typically presented as representative rather than averaged. Source data are provided as a Source Data file.
HEK293T cells were transfected with 37.5 μg empty pcDNA3.1(+) vector (Invitrogen), or the same vector expressing either wild-type PRDM9 (PRDM9^WT) or a catalytically dead PRDM9 mutant (PRDM9^Mut) and 75 μL of Lipofectamine 2000 (Invitrogen) in 6 mL of Opti-MEM (GIBCO) for 48 h. […] ChIP assays were then performed as previously described. Briefly, cells were fixed in 1% formaldehyde and the fixation reaction was quenched in a final concentration of 0.1 M glycine. Cell pellets were first lysed in LB1 (50 mM HEPES-KOH pH 7.5, 140 mM NaCl, 1 mM EDTA, 10% Glycerol, 0.5% Igepal, 0.25% TritonX), washed once in LB2 Buffer (10 mM Tris-HCl pH 8, 200 mM NaCl, 1 mM EDTA, 0.5 mM EGTA) and finally sonicated in LB3 buffer (10 mM Tris-HCl pH 8, 100 mM NaCl, 1 mM EDTA, 0.5 mM EGTA, 0.1% Sodium deoxycholate, 0.5% N-laurosylsarcosine) using a bioruptor (Diagenode). Thereafter, 50 μg of chromatin was subjected to ChIP using the following antibodies purchased from Abcam: α-H3K4me3 (1:200, ab8580, lot:GR3207339-1) and α-H3 (1:250, ab1791, lot:GR300978-4). After extensive washing in RIPA wash buffer (50 mM HEPES-KOH pH 7.6, 100 mM LiCl, 1 mM EDTA, 1% Igepal, 0.7% Sodium Deoxycholate), DNA was eluted from beads. The eluted DNA was treated with RNase A and Proteinase K and purified using the QIAGEN PCR purification kit. qPCR was then carried out targeting the indicated loci (Supplementary Table 3). Upper and lower limits were defined by |2^−(dCq±s) − 2^−(∆Cq)|, where s = √((Standard deviation of Input Cq)^2 + (Standard deviation of Target Cq)^2). […]
formation. ChIP qPCR analyses of H3K4me3 methylation levels at known PRDM9-bound and control loci. Cells transfected with empty vector (negative control) or vectors overexpressing either wild-type PRDM9 (PRDM9 WT) or catalytically dead PRDM9 (PRDM9 MUT) were […]
Panels a-d represent reported loci of […]
(1 picture or pasted object on this page, not shown here)
PRDM9 methylation; e-f are TSSs which are not known sites of PRDM9 methylation. Data are normalized to total H3 and are presented as the mean ± upper and lower limits from two […]

SMILES: COc1cc(OC)cc(-c2noc(N3CCN(C)C4(CCN(c5ccnc(C)c5)CC4)C3)n2)c1 [MRK-740]
- H3K4me3 ChIP-qPCR 2^-dCq (IP-Input) (chr2:40281930-40282015 Intragenic (SLC8A1-AS1), Figure 7 C, PRDM9WT, Drug Conc. 10): 2.181
- 2^-dCq (H3K4me3 IP relative to H3) (chr2:40281930-40282015 Intragenic (SLC8A1-AS1), Empty Vector, Drug Conc. 5, Figure S12 C): 0.9795
- 2^-dCq (H3K4me3 IP relative to H3) (chr2:40281930-40282015 Intragenic (SLC8A1-AS1), PRDM9MUT, Drug Conc. 5, Figure S12 C): 0.2048
- 2^-dCq (H3K4me3 IP relative to H3) (chr2:40281930-40282015 Intragenic (SLC8A1-AS1), PRDM9WT, Drug Conc. 5, Figure S12 C): 5.934
- H3K4me3 ChIP-qPCR 2^-dCq (IP-Input) (chr2:128811847-128811944 (Intergenic), Figure 7 A, Empty Vector, Drug Conc. 2.5): 1.167
- H3K4me3 ChIP-qPCR 2^-dCq (IP-Input) (chr2:128811847-128811944 (Intergenic), Figure 7 A, Empty Vector, Drug Conc. 5): 1.563
- H3K4me3 ChIP-qPCR 2^-dCq (IP-Input) (chr2:128811847-128811944 (Intergenic), Figure 7 A, Empty Vector, Drug Conc. 10): 1.267
- H3K4me3 ChIP-qPCR 2^-dCq (IP-Input) (chr2:128811847-128811944 (Intergenic), Figure 7 A, PRDM9WT, Drug Conc. 2.5): 4.007
- H3K4me3 ChIP-qPCR 2^-dCq (IP-Input) (chr2:128811847-128811944 (Intergenic), Figure 7 A, PRDM9WT, Drug Conc. 5): 4.852
- H3K4me3 ChIP-qPCR 2^-dCq (IP-Input) (chr2:128811847-128811944 (Intergenic), Figure 7 A, PRDM9WT, Drug Conc. 10): 1.932
- 2^-dCq (H3K4me3 IP relative to H3) (chr2:128811847-128811944 (Intergenic), Empty Vector, Drug Conc. 5, Figure S12 A): 1.563
- 2^-dCq (H3K4me3 IP relative to H3) (chr2:128811847-128811944 (Intergenic), PRDM9MUT, Drug Conc. 5, Figure S12 A): 0.3928
- 2^-dCq (H3K4me3 IP relative to H3) (chr2:128811847-128811944 (Intergenic), PRDM9WT, Drug Conc. 5, Figure S12 A): 4.852
- 2^-dCq (H3K4me3 IP relative to H3) (chr3:165514798-165514911 Intragenic (BCHE), Empty Vector, Drug Conc. 5, Figure S12 D): 0.9187
- 2^-dCq (H3K4me3 IP relative to H3) (chr3:165514798-165514911 Intragenic (BCHE), PRDM9MUT, Drug Conc. 5, Figure S12 D): 0.2392
- 2^-dCq (H3K4me3 IP relative to H3) (chr3:165514798-165514911 Intragenic (BCHE), PRDM9WT, Drug Conc. 5, Figure S12 D): 7.878
- H3K4me3 ChIP-qPCR 2^-dCq (IP-Input) (chr8:49932778-49932856 (Intergenic), Figure 7 B, Empty Vector, Drug Conc. 2.5): 0.8281
- H3K4me3 ChIP-qPCR 2^-dCq (IP-Input) (chr8:49932778-49932856 (Intergenic), Figure 7 B, Empty Vector, Drug Conc. 5): 1.029
- H3K4me3 ChIP-qPCR 2^-dCq (IP-Input) (chr8:49932778-49932856 (Intergenic), Figure 7 B, Empty Vector, Drug Conc. 10): 0.9528
- H3K4me3 ChIP-qPCR 2^-dCq (IP-Input) (chr8:49932778-49932856 (Intergenic), Figure 7 B, PRDM9WT, Drug Conc. 2.5): 8.6274
- H3K4me3 ChIP-qPCR 2^-dCq (IP-Input) (chr8:49932778-49932856 (Intergenic), Figure 7 B, PRDM9WT, Drug Conc. 5): 4.182
- H3K4me3 ChIP-qPCR 2^-dCq (IP-Input) (chr8:49932778-49932856 (Intergenic), Figure 7 B, PRDM9WT, Drug Conc. 10): 1.779
- 2^-dCq (H3K4me3 IP relative to H3) (chr8:49932778-49932856 (Intergenic), Empty Vector, Drug Conc. 5, Figure S12 B): 1.029
- 2^-dCq (H3K4me3 IP relative to H3) (chr8:49932778-49932856 (Intergenic), PRDM9MUT, Drug Conc. 5, Figure S12 B): 0.2948
- 2^-dCq (H3K4me3 IP relative to H3) (chr8:49932778-49932856 (Intergenic), PRDM9WT, Drug Conc. 5, Figure S12 B): 4.182
- 2^-dCq (H3K4me3 IP relative to H3) (chr12:6643945-6644023 TSS (GAPDH), Empty Vector, Drug Conc. 5, Figure S12 E): 83.0384
- 2^-dCq (H3K4me3 IP relative to H3) (chr12:6643945-6644023 TSS (GAPDH), PRDM9MUT, Drug Conc. 5, Figure S12 E): 72.3311
- 2^-dCq (H3K4me3 IP relative to H3) (chr12:6643945-6644023 TSS (GAPDH), PRDM9WT, Drug Conc. 5, Figure S12 E): 130.72
- 2^-dCq (H3K4me3 IP relative to H3) (chr19:8510167-8510261 TSS (HNRNPM), Empty Vector, Drug Conc. 5, Figure S12 F): 107.435
- 2^-dCq (H3K4me3 IP relative to H3) (chr19:8510167-8510261 TSS (HNRNPM), PRDM9MUT, Drug Conc. 5, Figure S12 F): 76.5131
- 2^-dCq (H3K4me3 IP relative to H3) (chr19:8510167-8510261 TSS (HNRNPM), PRDM9WT, Drug Conc. 5, Figure S12 F): 143.684
- <Cq> (Drug Conc. 2.5): 20.8229
- <Cq> (Drug Conc. 5): 20.8538
- <Cq> (Drug Conc. 10): 21.2288
